As a reminder, the IC50 is the midpoint of a concentration-inhibition curve.

Data on six compounds can be found in publication PMC10687260, “1,3-Diphenylureido hydroxamate as a promising scaffold for generation of potent antimalarial histone deacetylase inhibitors” (Scientific Reports, 2023).

The structures appear in SMILES notation.

The subject of one series is HepG2 cells. The series is described as follows: Cytotoxicity in human HepG2 cells (WST-1). Type of series: cell-based. The following applies: Homo sapiens, HepG2; 48 h, WST-1; read-out: IC50 HepG2. Put shortly: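 HepG2 cells (10^4/well, seeded overnight) were exposed to two-fold serial compound dilutions in fresh medium, then given WST-1 for 4 h. Formazan absorbance at 450 nm, with 630 nm background, was scaled 0–100% against untreated and DMSO controls.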

Another series addresses T1, human HDAC1 (Homo sapiens, UniProt Q13547).
T1 construct: purchased ENZO Life Sciences AG (Lausen, CH)
As to the kind of experiment: In vitro HDAC enzymatic assay, HDAC1. It counts as biochemical. The following applies: mean ± SD. As for the experimental part: (§1) In vitro HDAC enzymatic assays. Recombinant human HDAC1 and HDAC6 were purchased from ENZO Life Sciences AG (Lausen, CH) whereas HDAC8 was produced as described before. In vitro testing of the inhibitors in an enzymatic assay was carried out as described in previous publications[32],[33]. For HDAC1 a fluorogenic peptide derived from p53 (Ac-RHKK(Acetyl)-AMC) was used. For HDAC6, the substrate (Abz-SRGGK(thio-TFA)FFRR-NH2) was used as described before.

The target of another series is T2, human HDAC6 (Homo sapiens, UniProt Q9UBN7).
T2 construct: purchased ENZO Life Sciences AG (Lausen, CH)
T2 sequence (Q9UBN7 1-1215): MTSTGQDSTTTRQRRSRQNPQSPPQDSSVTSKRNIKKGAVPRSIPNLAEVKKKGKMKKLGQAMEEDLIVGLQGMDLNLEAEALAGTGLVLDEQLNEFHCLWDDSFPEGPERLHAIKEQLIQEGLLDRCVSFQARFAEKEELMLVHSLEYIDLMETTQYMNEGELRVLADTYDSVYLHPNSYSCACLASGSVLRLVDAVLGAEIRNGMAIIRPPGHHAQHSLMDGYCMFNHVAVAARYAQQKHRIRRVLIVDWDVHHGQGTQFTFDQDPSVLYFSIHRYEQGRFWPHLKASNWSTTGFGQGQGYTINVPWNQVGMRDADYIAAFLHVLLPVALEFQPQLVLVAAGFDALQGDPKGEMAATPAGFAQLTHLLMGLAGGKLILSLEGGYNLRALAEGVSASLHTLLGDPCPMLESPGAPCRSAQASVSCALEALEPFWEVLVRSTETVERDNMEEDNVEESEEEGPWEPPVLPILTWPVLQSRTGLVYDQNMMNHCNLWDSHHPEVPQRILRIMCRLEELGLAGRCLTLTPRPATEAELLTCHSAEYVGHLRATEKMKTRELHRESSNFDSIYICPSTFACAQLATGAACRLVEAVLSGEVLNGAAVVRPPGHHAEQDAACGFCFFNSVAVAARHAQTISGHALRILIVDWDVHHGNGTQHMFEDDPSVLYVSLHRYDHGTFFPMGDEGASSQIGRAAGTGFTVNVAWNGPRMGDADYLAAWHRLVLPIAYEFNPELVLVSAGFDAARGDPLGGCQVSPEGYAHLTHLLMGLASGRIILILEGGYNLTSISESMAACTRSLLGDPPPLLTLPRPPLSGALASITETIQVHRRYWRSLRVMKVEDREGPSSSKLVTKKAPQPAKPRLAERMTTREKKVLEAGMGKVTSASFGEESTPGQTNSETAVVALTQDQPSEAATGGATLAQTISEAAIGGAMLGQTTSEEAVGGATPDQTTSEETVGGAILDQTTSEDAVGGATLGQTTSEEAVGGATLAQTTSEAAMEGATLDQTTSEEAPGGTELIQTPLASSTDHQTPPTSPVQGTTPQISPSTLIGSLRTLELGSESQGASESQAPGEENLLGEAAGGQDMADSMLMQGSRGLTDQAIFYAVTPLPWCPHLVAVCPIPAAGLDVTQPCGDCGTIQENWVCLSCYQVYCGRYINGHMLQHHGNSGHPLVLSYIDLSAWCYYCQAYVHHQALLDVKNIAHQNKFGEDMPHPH
As to the kind of experiment: In vitro HDAC enzymatic assay, HDAC6. It counts as biochemical. The following applies: for IC50: mean ± SD; for HDAC1/6 SI: ratio HsHDAC1 IC50/HsHDAC6 IC50. As for the experimental part: as §1

Another series has as its target T3, CYP1A2 (Homo sapiens, UniProt P05177).
T3 construct: 10 μM compound was incubated with human liver microsomes and selective marker substrates; from tissue; host or cells: human liver microsomes
T3 sequence (P05177 1-516): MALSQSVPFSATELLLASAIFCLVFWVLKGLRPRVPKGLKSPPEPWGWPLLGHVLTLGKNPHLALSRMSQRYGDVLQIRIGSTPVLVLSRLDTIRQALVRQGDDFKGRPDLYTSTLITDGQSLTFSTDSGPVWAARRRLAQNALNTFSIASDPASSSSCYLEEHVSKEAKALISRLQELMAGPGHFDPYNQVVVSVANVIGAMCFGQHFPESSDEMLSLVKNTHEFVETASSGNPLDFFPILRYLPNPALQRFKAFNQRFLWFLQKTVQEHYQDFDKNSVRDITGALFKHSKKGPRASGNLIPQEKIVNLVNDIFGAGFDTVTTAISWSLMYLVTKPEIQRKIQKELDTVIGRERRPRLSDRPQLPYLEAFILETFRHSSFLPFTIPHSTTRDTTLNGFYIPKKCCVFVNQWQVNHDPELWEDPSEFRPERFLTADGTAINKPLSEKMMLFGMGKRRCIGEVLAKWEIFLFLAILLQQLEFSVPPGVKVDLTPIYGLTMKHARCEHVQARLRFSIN
The series is described as follows: CYP450 inhibition in human liver microsomes, 1A2. Type of series: in vitro ADME. The following applies: 10 µM.

A further series deals with T4, CYP450 2C9 (Homo sapiens, UniProt P11712).
T4 construct: 10 μM compound was incubated with human liver microsomes and selective marker substrates; from tissue; host or cells: human liver microsomes
As to the kind of experiment: CYP450 inhibition in human liver microsomes, 2C9. It counts as in vitro ADME. The following applies: 10 µM. (In general: Liver microsomes are vesicles of endoplasmic reticulum, rich in cytochrome P450 enzymes.)

Another series concerns the target T5, CYP450 2D6 (Homo sapiens, UniProt P10635).
T5 construct: 10 μM compound was incubated with human liver microsomes and selective marker substrates; from tissue; host or cells: human liver microsomes
As to the kind of experiment: CYP450 inhibition in human liver microsomes, 2D6. It counts as in vitro ADME. The settings on record: 10 µM.

Series [1] can be described thus: Stability in human hepatic microsomes. Type of series: in vitro ADME. The following applies: for half-life at 1 µM: 1 mg/mL hepatic microsomes, 1 µM compound, read-out: Half-life t1/2 Human; for microsomal CLint at 1 µM: read-out: Intrinsic clearance Clint Human. The source says:
(§2) DMPK evaluation. […].

The nature of series [2]: Stability in mouse hepatic microsomes. The settings on record: for half-life at 1 µM: 1 mg/mL hepatic microsomes, 1 µM compound, read-out: Half-life t1/2 Mouse; for microsomal CLint at 1 µM: read-out: Intrinsic clearance Clint Mouse. Type of series: in vitro ADME.
Source text: as §2

T1 sequence (Q13547 whole entry): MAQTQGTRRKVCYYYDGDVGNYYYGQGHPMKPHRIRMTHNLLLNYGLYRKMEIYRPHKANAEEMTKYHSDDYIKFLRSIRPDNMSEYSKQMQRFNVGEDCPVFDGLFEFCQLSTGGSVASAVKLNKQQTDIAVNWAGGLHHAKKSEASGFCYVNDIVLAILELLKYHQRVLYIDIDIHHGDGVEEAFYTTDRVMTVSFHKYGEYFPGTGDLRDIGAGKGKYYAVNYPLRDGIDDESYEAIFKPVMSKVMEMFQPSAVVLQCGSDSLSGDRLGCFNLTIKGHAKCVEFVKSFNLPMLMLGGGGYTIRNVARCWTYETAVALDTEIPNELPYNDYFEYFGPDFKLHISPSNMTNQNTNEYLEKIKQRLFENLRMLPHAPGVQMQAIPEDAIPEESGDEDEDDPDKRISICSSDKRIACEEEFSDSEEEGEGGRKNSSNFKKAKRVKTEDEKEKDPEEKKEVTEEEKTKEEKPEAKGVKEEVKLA
T5 sequence (P10635 whole entry): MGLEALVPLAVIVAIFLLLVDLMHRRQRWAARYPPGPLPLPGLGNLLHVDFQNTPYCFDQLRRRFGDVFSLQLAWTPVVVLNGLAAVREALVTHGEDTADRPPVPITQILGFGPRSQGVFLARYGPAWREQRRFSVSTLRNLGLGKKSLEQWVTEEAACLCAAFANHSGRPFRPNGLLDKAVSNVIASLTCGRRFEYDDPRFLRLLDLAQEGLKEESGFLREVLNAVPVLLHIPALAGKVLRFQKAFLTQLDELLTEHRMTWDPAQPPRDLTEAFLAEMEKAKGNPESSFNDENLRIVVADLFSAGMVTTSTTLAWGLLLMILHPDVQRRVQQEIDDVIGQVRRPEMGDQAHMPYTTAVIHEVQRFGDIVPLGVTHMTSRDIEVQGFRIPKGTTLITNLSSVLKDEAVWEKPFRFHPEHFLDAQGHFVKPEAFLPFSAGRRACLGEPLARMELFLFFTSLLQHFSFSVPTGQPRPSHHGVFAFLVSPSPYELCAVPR
T4 sequence (P11712 whole entry): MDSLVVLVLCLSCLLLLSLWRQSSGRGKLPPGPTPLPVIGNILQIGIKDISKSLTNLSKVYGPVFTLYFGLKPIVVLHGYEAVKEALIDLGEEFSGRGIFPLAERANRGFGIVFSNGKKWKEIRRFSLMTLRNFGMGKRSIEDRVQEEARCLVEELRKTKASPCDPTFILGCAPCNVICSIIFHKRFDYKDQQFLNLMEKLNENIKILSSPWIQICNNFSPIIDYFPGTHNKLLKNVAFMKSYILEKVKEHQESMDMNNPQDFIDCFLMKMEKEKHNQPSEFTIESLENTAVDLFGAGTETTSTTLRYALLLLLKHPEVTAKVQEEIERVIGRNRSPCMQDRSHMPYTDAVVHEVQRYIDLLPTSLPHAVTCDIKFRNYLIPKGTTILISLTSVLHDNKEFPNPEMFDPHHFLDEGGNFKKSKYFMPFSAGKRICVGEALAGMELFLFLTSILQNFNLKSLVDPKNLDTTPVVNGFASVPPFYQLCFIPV

As to `COc1ccc(NC(=O)Nc2ccc(/C=C/C(=O)NO)cc2)cc1` [Compound 6c, (E)-N-hydroxi-3-(4-(3-(4-methoxyphenyl)ureido)phenyl)acrylamide], the IC50 with HepG2 cells came to 13.3 µM; on human HDAC1 it was 1.58 ± 0.0622 µM; against human HDAC6, 0.0077 ± 0.0009 µM. The “HDAC1/6 SI” value on human HDAC6 was found to be 206. Moreover, the “CYP450% inhibition @ 10 µM 1A2” value on CYP1A2 is 32%. In addition, on CYP450 2C9, the “CYP450% inhibition @ 10 µM 2C9” value turned out to be 18%. The “CYP450% inhibition @ 10 µM 2D6” value at CYP450 2D6 is listed as “*^b (Inhibition < 10%)”. Moreover, the half-life at 1 µM was 39.6 min in series [1] and 4.4 min in series [2]. For the same compound, the microsomal CLint at 1 µM in series [1] worked out at 17 µL/min/mg; in series [2] it was 158 µL/min/mg.
In the case of `COc1ccc(NC(=O)Nc2ccc(CCC(=O)NO)cc2)cc1` [Compound 7c, N-hydroxy-3-(4-(3-(4-methoxyphenyl)ureido)phenyl)propanamide], the half-inhibitory concentration (IC50) is greater than 50 µM in the series on HepG2 cells, 3.56 ± 0.185 µM at human HDAC1 and 0.151 ± 0.0111 µM at human HDAC6. Further, the “HDAC1/6 SI” value at human HDAC6 is given as 23. At CYP1A2, the “CYP450% inhibition @ 10 µM 1A2” value turned out to be 22%. Besides, the “CYP450% inhibition @ 10 µM 2C9” value on CYP450 2C9 is “* (Inhibition < 10%)”. For the same compound, the “CYP450% inhibition @ 10 µM 2D6” value on CYP450 2D6 is “* (Inhibition < 10%)”. For the same compound, the values for the half-life at 1 µM in series [1] and in series [2] were greater than 120 min and 4.1 min, respectively. For the same compound, the figures for the microsomal CLint at 1 µM in series [1] and in series [2] were less than 6 µL/min/mg and 169 µL/min/mg, respectively.
On to `O=C(Nc1ccccc1)Nc1ccc(C(=O)NO)cc1` [Compound 8a, N-hydroxy-4-(3-phenylureido)bezamide], for which the IC50 with HepG2 cells came to 56 µM; on human HDAC1, 5.33 ± 0.366 µM; against human HDAC6, 0.0085 ± 0.0008 µM. Also, the “HDAC1/6 SI” value on human HDAC6 came to 627. Further, the “CYP450% inhibition @ 10 µM 1A2” value at CYP1A2 came to 48%. In addition, the “CYP450% inhibition @ 10 µM 2C9” value at CYP450 2C9 was “* (Inhibition < 10%)”. In addition, the “CYP450% inhibition @ 10 µM 2D6” value on CYP450 2D6 is “* (Inhibition < 10%)”. Also, the half-life at 1 µM in series [1] was greater than 120 min; in series [2], 10.1 min. Moreover, the microsomal CLint at 1 µM in series [1] was less than 6 µL/min/mg; in series [2], 69 µL/min/mg.
As to `O=C(Nc1ccc(Cl)cc1)Nc1ccc(C(=O)NO)cc1` [Compound 8b, 4-(3-(4-chlorophenyl)ureido)-N-hydroxybenzamide], the IC50 in the series on HepG2 cells is greater than 200 µM; against human HDAC1, 5.24 ± 0.476 µM; on human HDAC6, 0.015 ± 0.0004 µM. Moreover, on human HDAC6, the “HDAC1/6 SI” value is on record as 349. Further, the “CYP450% inhibition @ 10 µM 1A2” value on CYP1A2 turned out to be 42%. For the same compound, the “CYP450% inhibition @ 10 µM 2C9” value at CYP450 2C9 is given as “* (Inhibition < 10%)”. Also, the “CYP450% inhibition @ 10 µM 2D6” value at CYP450 2D6 is given as “* (Inhibition < 10%)”. Further, the half-life at 1 µM in series [1] came out at 66 min; in series [2], 4 min. The microsomal CLint at 1 µM came out at 10 µL/min/mg in series [1] and 173 µL/min/mg in series [2].
Consider `COc1ccc(NC(=O)Nc2ccc(C(=O)NO)cc2)cc1` [Compound 8c, N-hydroxy-4-(3–4(-methoxyphenyl)ureido)benzamide], for which the IC50 with HepG2 cells is greater than 200 µM; against human HDAC1, 6.18 ± 0.231 µM; on human HDAC6, 0.0159 ± 0.0004 µM. Further, the “CYP450% inhibition @ 10 µM 1A2” value at CYP1A2 is “* (Inhibition < 10%)”. On CYP450 2C9, the “CYP450% inhibition @ 10 µM 2C9” value is listed as “* (Inhibition < 10%)”. Also, the “CYP450% inhibition @ 10 µM 2D6” value at CYP450 2D6 was “* (Inhibition < 10%)”. In addition, the figures for the half-life at 1 µM in series [1] and in series [2] were 98.8 min and 2.5 min, respectively. For the same compound, the microsomal CLint at 1 µM in series [1] amounted to 7 µL/min/mg; in series [2] it was 281 µL/min/mg.
Consider `O=C(Nc1ccc(C(=O)NO)cc1)Nc1ccc([N+](=O)[O-])cc1` [Compound 8d, N-hydroxy-4-(3-(4-nitrophenyl)ureido)benzamide], for which the IC50 in the series on HepG2 cells was determined as 54 µM; against human HDAC1 it was 3.74 ± 0.232 µM; against human HDAC6, 0.0134 ± 0.0005 µM. Besides, the “HDAC1/6 SI” value on human HDAC6 is on record as 279. Also, the “CYP450% inhibition @ 10 µM 1A2” value at CYP1A2 is “* (Inhibition < 10%)”. Further, the “CYP450% inhibition @ 10 µM 2C9” value at CYP450 2C9 is reported as “* (Inhibition < 10%)”. Besides, the “CYP450% inhibition @ 10 µM 2D6” value at CYP450 2D6 is on record as “* (Inhibition < 10%)”. In addition, the half-life at 1 µM was greater than 120 min in series [1] and 13.8 min in series [2]. The values for the microsomal CLint at 1 µM in series [1] and in series [2] were less than 6 µL/min/mg and 50 µL/min/mg, respectively.
